This is an account of results in publication PMC4858680, “A platinum-based hybrid drug design approach to circumvent acquired resistance to molecular targeted tyrosine kinase inhibitors” (Scientific Reports, 2016).

Where two headings read alike, the source gives them in different places.

For test [1], the target named is T1, ITK (Homo sapiens, UniProt Q08881).
T1 sequence (Q08881 1-620): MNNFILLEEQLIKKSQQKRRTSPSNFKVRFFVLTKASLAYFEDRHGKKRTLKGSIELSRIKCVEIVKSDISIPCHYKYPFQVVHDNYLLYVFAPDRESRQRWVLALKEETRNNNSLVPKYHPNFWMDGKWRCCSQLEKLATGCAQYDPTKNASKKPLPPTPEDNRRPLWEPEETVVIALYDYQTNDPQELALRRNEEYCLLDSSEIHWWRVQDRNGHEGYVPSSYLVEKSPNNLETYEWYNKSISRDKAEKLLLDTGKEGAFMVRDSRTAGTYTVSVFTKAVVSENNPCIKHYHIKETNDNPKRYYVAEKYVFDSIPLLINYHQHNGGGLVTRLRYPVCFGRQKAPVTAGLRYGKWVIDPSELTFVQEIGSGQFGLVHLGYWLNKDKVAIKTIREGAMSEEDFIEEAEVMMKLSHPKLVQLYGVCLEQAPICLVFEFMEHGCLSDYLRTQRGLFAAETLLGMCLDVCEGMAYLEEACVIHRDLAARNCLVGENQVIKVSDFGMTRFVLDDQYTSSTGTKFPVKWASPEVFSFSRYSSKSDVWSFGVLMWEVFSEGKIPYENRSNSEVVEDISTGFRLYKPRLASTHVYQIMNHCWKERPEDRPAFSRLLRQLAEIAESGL
Particulars: 10 μM.

Test [2] deals with T2, TYRO3 (Homo sapiens, UniProt Q06418).
T2 construct: purchased DiscoveRx Corporation (KINOMEscan service)
T2 sequence (Q06418 41-890): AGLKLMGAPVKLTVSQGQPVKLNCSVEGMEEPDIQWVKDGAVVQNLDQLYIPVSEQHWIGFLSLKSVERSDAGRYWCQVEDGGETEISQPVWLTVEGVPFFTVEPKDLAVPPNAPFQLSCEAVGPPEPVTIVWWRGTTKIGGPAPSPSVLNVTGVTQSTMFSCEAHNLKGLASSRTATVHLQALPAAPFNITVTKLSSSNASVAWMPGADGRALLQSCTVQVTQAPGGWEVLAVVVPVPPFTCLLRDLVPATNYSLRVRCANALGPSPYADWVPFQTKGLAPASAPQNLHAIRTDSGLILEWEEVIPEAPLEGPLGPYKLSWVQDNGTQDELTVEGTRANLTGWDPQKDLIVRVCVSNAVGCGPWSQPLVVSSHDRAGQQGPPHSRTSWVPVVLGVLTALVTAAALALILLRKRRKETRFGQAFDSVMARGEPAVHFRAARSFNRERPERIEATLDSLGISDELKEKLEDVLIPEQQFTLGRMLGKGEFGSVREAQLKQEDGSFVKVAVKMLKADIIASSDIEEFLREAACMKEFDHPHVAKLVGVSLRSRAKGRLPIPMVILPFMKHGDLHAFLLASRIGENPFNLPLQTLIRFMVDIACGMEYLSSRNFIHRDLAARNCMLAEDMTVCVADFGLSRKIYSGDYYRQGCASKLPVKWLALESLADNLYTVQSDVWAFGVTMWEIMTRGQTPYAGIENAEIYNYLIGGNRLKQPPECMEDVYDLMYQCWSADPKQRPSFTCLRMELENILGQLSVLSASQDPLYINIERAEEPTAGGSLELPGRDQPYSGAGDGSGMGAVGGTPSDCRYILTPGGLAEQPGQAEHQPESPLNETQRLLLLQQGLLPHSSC
It counts as binding. The following applies: for Percent control: 10 μM.

For test [3], the target named is T3, FLT3(N841I) (Homo sapiens, UniProt P36888, N841I).
T3 sequence (P36888 27-993 N841I): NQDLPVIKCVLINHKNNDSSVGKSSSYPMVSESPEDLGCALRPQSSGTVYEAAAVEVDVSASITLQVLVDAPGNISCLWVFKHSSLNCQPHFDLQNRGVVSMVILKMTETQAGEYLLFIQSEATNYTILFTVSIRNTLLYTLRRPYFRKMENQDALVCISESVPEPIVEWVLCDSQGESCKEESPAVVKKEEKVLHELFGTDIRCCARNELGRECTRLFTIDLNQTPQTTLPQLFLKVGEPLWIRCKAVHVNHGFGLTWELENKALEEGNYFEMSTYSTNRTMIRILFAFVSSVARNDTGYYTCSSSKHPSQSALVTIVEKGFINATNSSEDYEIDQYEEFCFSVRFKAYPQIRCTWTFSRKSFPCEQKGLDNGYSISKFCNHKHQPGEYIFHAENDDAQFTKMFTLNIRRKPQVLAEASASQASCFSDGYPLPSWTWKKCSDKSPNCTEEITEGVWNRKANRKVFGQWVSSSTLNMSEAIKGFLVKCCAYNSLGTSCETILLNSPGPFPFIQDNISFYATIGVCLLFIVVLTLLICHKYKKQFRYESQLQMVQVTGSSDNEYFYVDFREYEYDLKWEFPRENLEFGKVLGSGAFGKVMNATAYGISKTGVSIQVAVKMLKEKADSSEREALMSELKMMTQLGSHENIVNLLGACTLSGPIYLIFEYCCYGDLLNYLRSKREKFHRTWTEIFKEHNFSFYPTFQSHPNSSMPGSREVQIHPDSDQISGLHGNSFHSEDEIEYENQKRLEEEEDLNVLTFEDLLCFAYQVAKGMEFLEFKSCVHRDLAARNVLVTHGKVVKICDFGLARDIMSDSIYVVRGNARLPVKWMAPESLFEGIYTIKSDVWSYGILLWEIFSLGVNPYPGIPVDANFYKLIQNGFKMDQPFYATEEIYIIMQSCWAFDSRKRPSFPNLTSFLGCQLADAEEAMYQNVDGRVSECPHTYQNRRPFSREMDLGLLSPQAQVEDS

Consider `Cc1ccc(NC(=O)c2ccc(CN3CCN(C)CC3)cc2)cc1Nc1nccc(-c2cccnc2)[n+]1[Pt-2]1([Cl])[NH2+]C2CCCCC2[NH2+]1` (stereo not drawn) [1b, oxaliplatin-imatinib], for which the Percent control in test [1] was found to be 100%; in test [2] it was 80%; in test [3] (FLT3(N841I), 10 μM), 72%.

Take `COc1cc2c(Nc3ccc(Br)cc3F)ncnc2cc1OCC1CCN(C)CC1` [Vandetanib, reference compound]: the remaining binding at 10 µM in test [2] (read-out: Percent control) was 0.9%.

Regarding `COc1cc2c(Nc3ccc(Br)cc3F)[n+]([Pt-2]3([Cl])[NH2+]C4CCCCC4[NH2+]3)cnc2cc1OCC1CCN(C)CC1` (stereo not drawn) [3b, oxaliplatin-vandetanib], the Percent control in test [1] was 95%; in test [2] it was 0%; in test [3], 18.

With `C#Cc1cccc(Nc2c3cc(OCCOC)c(OCCOC)cc3nc[n+]2[Pt@SP2-2]([NH3+])([NH3+])[Cl])c1` [2a, cisplatin-erlotinib], the Percent control in test [1] is 84%; in test [2], 85%; in test [3], 70.

For the compound `Cc1ccc(NC(=O)c2ccc(CN3CCN(C)CC3)cc2)cc1Nc1nccc(-c2cccnc2)n1` [Imatinib, reference compound], the Percent control in test [2] is 100%; in test [3] (FLT3(N841I), 10 μM), 100%.
